Assay results as given in patent publication US7598234B2, “Steroid derived antibiotics” (Brigham Young University, priority 1998, dated 2009).
Converted amounts (≈) assume the structure as drawn.

Key:
[1] = system: Pseudomonas aeruginosa (ATCC 27853); assay: Sensitization to novobiocin, Pseudomonas aeruginosa (ATCC 27853); type: cell-based; settings: Table 8; P. aureginosa (ATCC 27853)
Description: (§1) Alternatively, “fractional inhibitory concentration (FIC)” is also useful for determination of synergy between the compounds of the invention, or the compounds in combination with known antibiotics. FICs can be performed by checkerboard titrations of compounds in one dimension of a microtiter plate, and of antibiotics in the other dimension, for example. The FIC is calculated by looking at the impact of one antibiotic on the MIC of the other and vice versa. […] Preferably, an FIC of less than 0.5 is obtained for synergism. As used herein, FIC can be determined as follows:
(§2) Aliquots of 1 mL of the suspension were added to test tubes containing 1 mL TSB and incrementally varied concentrations of cholic acid derivatives and/or erythromycin or novobiocin. In the sensitization experiments, erythromycin or novobiocin were added 15 minutes later than the cholic acid derivatives. The samples were subjected to stationary incubation at 37° C. for 24 hours. Sample turbidity was determined by measuring absorption at 760 nm (HP 8453 UV-Visible Chemstation, Hewlett Packard). Additionally, an alliquot from each of the samples showing no measurable turbidity was subcultured on TSA plates (alliquots were diluted to provide fewer than 300 CFU). Colonies that grew on the subculture after overnight incubation were counted and the number of CFU/mL in the samples were calculated. The calculated values were compared to the number of CFU/mL in the original inoculum. […]
(§3) To measure permeabilization, the FIC values for compounds 1, 2, 5, 106, 10, 112, 133, and 134 with erythromycin, novobiocin, and rifampicin were determined. Concentrations of 0.5, 1.0 or 3.0 μg/mL of these antibiotics were used, and the concentrations of the cholic acid derivatives required to inhibit bacterial growth of Gram-negative strains were determined.

E. coli (ATCC 25922) [2] = assay: Sensitization to erythromycin, E. coli (ATCC 25922); type: cell-based, Escherichia coli; settings: for FIC / concentration required to inhibit bacterial growth with antibiotic: Table 11, Escherichia coli ATCC 25922; for FIC: erythromycin (by order); for concentration required to inhibit bacterial growth with antibiotic: erythromycin (by order) at 0.5, 1.0 or 3.0 μg/mL
Description: FICs can be performed by checkerboard titrations of compounds in one dimension of a microtiter plate, and of antibiotics in the other dimension, for example. The FIC is calculated by looking at the impact of one antibiotic on the MIC of the other and vice versa. […] Preferably, an FIC of less than 0.5 is obtained for synergism. As used herein, FIC can be determined as follows:
(§4) Aliquots of 1 mL of the suspension were added to test tubes containing 1 mL TSB and incrementally varied concentrations of cholic acid derivatives and/or erythromycin or novobiocin. In the sensitization experiments, erythromycin or novobiocin were added 15 minutes later than the cholic acid derivatives. The samples were subjected to stationary incubation at 37° C. for 24 hours. Sample turbidity was determined by measuring absorption at 760 nm (HP 8453 UV-Visible Chemstation, Hewlett Packard). Additionally, an alliquot from each of the samples showing no measurable turbidity was subcultured on TSA plates (alliquots were diluted to provide fewer than 300 CFU). Colonies that grew on the subculture after overnight incubation were counted and the number of CFU/mL in the samples were calculated. The calculated values were compared to the number of CFU/mL in the original inoculum.
Concentrations of 0.5, 1.0 or 3.0 μg/mL of these antibiotics were used, and the concentrations of the cholic acid derivatives required to inhibit bacterial growth of Gram-negative strains were determined.
(§5) Minimum inhibition concentrations (MIC) and minimum hemolytic concentrations (MHC) were measured as described in Li et al., Antimicrob. Agents. Chemother., 1999, 43, 1347.

E. coli (ATCC 10798) [3] = assay: MIC and MBC measurement with E. coli (ATCC 10798); type: cell-based, Escherichia coli; settings: for MIC (in words): FIG. 5, strain not named
Source text: (§6) General: Microorganisms. Reference strains were purchased from the American Type Culture Collection (Rockville, Md.) or Bactrol disks from Difeo Laboratories (Detroit, Mich.). The following specific ATCC strains were used: 10798 Escherichia coli, 25922 Escherichia coli, 13883 Klebsiella pneumoniae, 27853 Pseudomonas aeruginosa, 14028 Salmonella typhimurium, 29212 Enterococcus faecalis, 25923 Staphylococcus aureus, 19615 Streptococcus pyogenes, and 90028 Candida albicans. Bacterial strains were maintained on Mueller-Hinton agar plates, and Candida albicans was maintained on Sabouraud Dextrose agar plates.
(§7) Tryptic soy broth (TSB) was made by dissolving 27.5 grams of tryptic soy broth without dextrose (DIFCO Laboratories) in 1 liter of deionized water and sterilizing at 121° C. for 15 minutes. Solid agar (TSA) plates were made by dissolving 6.4 grams of tryptic soy broth and 12 grams of agar (purified grade, Fischer Scientific) in 800 mL of deionized water and sterilizing at 121° C. for 20 minutes. Aliquots (20 mL) of the homogeneous solution were then poured in sterile plastic petri dishes (100×15 mm, Fisher Scientific). Solutions of compounds were made by dissolving the HCl salt of the respective compound into an appropriate amount of deionized and sterilized water followed by microfiltration.
as §4

E. coli (ATCC 25922) [4] = assay: MIC and MBC measurement with E. coli (ATCC 25922); type: cell-based, Escherichia coli
Source text: as §6, §7, §2

[5] = system: Pseudomonas aeruginosa (ATCC 27853); assay: MIC and MBC measurement with Pseudomonas aeruginosa (ATCC 27853); type: cell-based
Source text: as §6, §7, §4

E. coli (ATCC 10798) [6] = assay: Sensitization to novobiocin (concentration lowering the MIC of novobiocin), E. coli (ATCC 10798); type: cell-based, Escherichia coli; settings: Table 3, E. coli (ATCC 10798)
Description: as §1, §4
(§8) Ability to permeabilize outer membrane: Compounds 11, 106, and 108-114 (FIG. 1) were tested for antibiotic activity. They were also tested for the ability to permeabilize the outer membrane of Gram-negative bacteria, causing sensitization to hydrophobic antibiotics that cannot cross the outer membrane. The permeabilization of the outer membrane was measured using erythromycin and novobiocin.
(§9) The MICs of erythromycin and novobiocin against E. coli (ATCC 10798) at 70 and >500 μg/mL were measured.

[7] = system: Pseudomonas aeruginosa (ATCC 27853); assay: Sensitization to erythromycin, Pseudomonas aeruginosa (ATCC 27853); type: cell-based; settings: for FIC / concentration required to inhibit bacterial growth with antibiotic: Table 11, Pseudomonas aeruginosa ATCC 27853; for FIC: erythromycin (by order); for concentration required to inhibit bacterial growth with antibiotic: erythromycin (by order) at 0.5, 1.0 or 3.0 μg/mL
Description: as §1, §2, §3

E. coli (ATCC 10798) [8] = assay: Sensitization to erythromycin (concentration lowering the MIC of erythromycin), E. coli (ATCC 10798); type: cell-based, Escherichia coli; settings: Table 2, E. coli (ATCC 10798)
Description: as §1, §4, §8, §9

[9] = system: Klebsiella pneumonia ATCC 13883; assay: MIC and MBC measurement with Klebsiella pneumoniae ATCC 13883; type: cell-based; settings: Table 10
Source text: as §6, §7, §4

[10] = system: Streptococcus pyrogenes ATCC 19615; assay: MIC and MBC measurement with Streptococcus pyogenes ATCC 19615; type: cell-based; settings: Table 10
Source text: as §6, §7, §4

[11] = system: Candida albicans ATCC 90028; assay: MIC and MBC measurement with Candida albicans ATCC 90028; type: cell-based; settings: Table 10
Source text: as §6, §7, §4

[12] = system: Staphylococcus aureus ATCC 25923; assay: MIC and MBC measurement with Staphylococcus aureus ATCC 25923; type: cell-based; settings: Table 10; Staphylococcus aureus ATCC 25923
Source text: as §6, §7, §2

[13] = system: Enterococcus faecalis ATCC 29212; assay: MIC and MBC measurement with Enterococcus faecalis ATCC 29212; type: cell-based; settings: Table 10
Source text: as §6, §7, §4

[14] = Description: as §5
[15] = system: Salmonella typhimurium ATCC 14028; assay: MIC and MBC measurement with Salmonella typhimurium ATCC 14028; type: cell-based; settings: Table 10
Source text: as §6, §7, §4

[16] = Table 6, P. aureginosa (ATCC 27853)
[17] = Table 10, Escherichia coli ATCC 25922
[18] = Table 10, Pseudomonas aeruginosa ATCC 27853

| Compound | MBC [9] [µg/mL] | MIC [9] [µg/mL] | MBC [10] [µg/mL] | MIC [10] [µg/mL] | MBC [11] [µg/mL] | MIC [11] [µg/mL] | MBC [12] [µg/mL] | MIC [12] [µg/mL] | FIC (E. coli (ATCC 25922) [2]) | concentration required to inhibit bacterial growth with antibiotic (E. coli (ATCC 25922) [2]) [µg/mL] | MBC [13] [µg/mL] | MIC [13] [µg/mL] | MIC (in words) (E. coli (ATCC 10798) [3]) | MHC [14] [µg/mL] | MBC (E. coli (ATCC 25922) [4]; [17]) [µg/mL] | MIC (E. coli (ATCC 25922) [4]; [17]) [µg/mL] | MBC [5, 18] [µg/mL] | MIC [5, 18] [µg/mL] | FIC [7] | concentration required to inhibit bacterial growth with antibiotic [7] [µg/mL] | also measured |
| --- | --- | --- | --- | --- | --- | --- | --- | --- | --- | --- | --- | --- | --- | --- | --- | --- | --- | --- | --- | --- | --- |
| C[C@H](CCCN(C)Cc1ccccc1)[C@H]1CC[C@H]2[C@@H]3[C@H](OCCNC(=N)N)C[C@@H]4C[C@H](OCCNC(=N)N)CC[C@]4(C)[C@H]3C[C@H](OCCNC(=N)N)[C@]12C [Compound 4] | – | – | – | – | – | – | – | – | – | – | – | – | – | – | – | – | – | – | – | – | MIC: concentration required to lower the MIC of novobiocin from >500 μg/mL to 1 μg/mL [1]: 6 µg/mL; MIC: concentration required to lower the MIC of erythromycin from 60 μg/mL to 1 μg/mL (E. coli (ATCC 25922) [2]; Table 5, E. coli (ATCC 25922)): 1 µg/mL; MBC (with erythromycin) (E. coli (ATCC 25922) [2]; Table 5, E. coli (ATCC 25922), erythromycin sensitization): 5 µg/mL; MBC (E. coli (ATCC 10798) [3]; Table 1, E. coli (ATCC 10798)): 10 µg/mL (≈ 13.3 µM); MIC (E. coli (ATCC 10798) [3]; Table 1, E. coli (ATCC 10798)): 5 µg/mL (≈ 6.64 µM); MBC (E. coli (ATCC 25922) [4]; Table 4, E. coli (ATCC 25922)): 9 µg/mL (≈ 12 µM); MIC (E. coli (ATCC 25922) [4]; Table 4, E. coli (ATCC 25922)): 6 µg/mL (≈ 7.97 µM); MBC [5, 16]: 40 µg/mL (≈ 53.1 µM); MIC [5, 16]: 15 µg/mL (≈ 19.9 µM); MIC: concentration required to lower the MIC of novobiocin from >500 μg/mL to 1 μg/mL (E. coli (ATCC 10798) [6]): 5 µg/mL; MBC (with novobiocin) (E. coli (ATCC 10798) [6]; novobiocin sensitization): 10 µg/mL; MIC: concentration required to lower the MIC of erythromycin from 240 μg/mL to 5 μg/mL ([7]; Table 7, P. aureginosa (ATCC 27853)): 5 µg/mL; MBC (with erythromycin) ([7]; Table 7, P. aureginosa (ATCC 27853), erythromycin sensitization): 40 µg/mL; MIC: concentration required to lower the MIC of erythromycin from 70 μg/mL to 1 μg/mL (E. coli (ATCC 10798) [8]): 1.5 µg/mL; MBC (with erythromycin) (E. coli (ATCC 10798) [8]; erythromycin sensitization): 10 µg/mL |
| CCCCCCCCNCCC[C@@H](C)[C@H]1CC[C@H]2[C@@H]3[C@H](OCCCN)C[C@@H]4C[C@H](OCCCN)CC[C@]4(C)[C@H]3C[C@H](OCCCN)[C@]12C [Compound 133] | 5.8 (≈ 8.57 µM) | 2.6 (≈ 3.84 µM) | 2.9 (≈ 4.28 µM) | 2.3 (≈ 3.4 µM) | 45 (≈ 66.5 µM) | 31 (≈ 45.8 µM) | 2.0 (≈ 2.95 µM) | 0.4 (≈ 0.591 µM) | 0.42 | 1.2 | 5.5 (≈ 8.12 µM) | 3.1 (≈ 4.58 µM) | very low | 29 | 3.0 (≈ 4.43 µM) | 3.0 (≈ 4.43 µM) | 3.2 (≈ 4.73 µM) | 2.0 (≈ 2.95 µM) | 0.21 | 0.35 | MBC [15]: 6.7 µg/mL (≈ 9.89 µM); MIC [15]: 2.6 µg/mL (≈ 3.84 µM) |
| CCCCCCCCNCCC[C@@H](C)[C@H]1CC[C@H]2[C@@H]3[C@H](OCCCNC(=N)N)C[C@@H]4C[C@H](OCCCNC(=N)N)CC[C@]4(C)[C@H]3C[C@H](OCCCNC(=N)N)[C@]12C [Compound 134] | 3.0 (≈ 3.73 µM) | 0.84 (≈ 1.05 µM) | 3.5 (≈ 4.36 µM) | 3.5 (≈ 4.36 µM) | 76 (≈ 94.6 µM) | 53 (≈ 66 µM) | 1.4 (≈ 1.74 µM) | 0.59 (≈ 0.735 µM) | 0.36 | 0.37 | 5.8 (≈ 7.22 µM) | 3.0 (≈ 3.73 µM) | very low | 9.0 | 0.37 (≈ 0.461 µM) | 0.31 (≈ 0.386 µM) | 2.9 (≈ 3.61 µM) | 2.0 (≈ 2.49 µM) | 0.42 | 0.70 | MBC [15]: 1.8 µg/mL (≈ 2.24 µM); MIC [15]: 0.81 µg/mL (≈ 1.01 µM) |
